Laboratory results from ChEMBL document CHEMBL5244269, “Improving metabolic stability and removing aldehyde oxidase liability in a 5-azaquinazoline series of IRAK4 inhibitors” (Bioorg Med Chem, 2020).
In brackets after ≈: the same amount, converted by molar mass.

Experiments:
OCI-Ly10 [1] = experiment: Growth inhibition of human OCILY10 cells at 10 uM incubated for 3 days (Rvb= -3%); format: functional; settings: OCI-Ly10, 72 h, time 3 day, read-out: GI
[2] = target: T1, Receptor-type tyrosine-protein kinase FLT3 (Homo sapiens, UniProt P36888); experiment: Inhibition of FLT3 (unknown origin) in presence of 600 uM ATP
T1 sequence (P36888 whole entry): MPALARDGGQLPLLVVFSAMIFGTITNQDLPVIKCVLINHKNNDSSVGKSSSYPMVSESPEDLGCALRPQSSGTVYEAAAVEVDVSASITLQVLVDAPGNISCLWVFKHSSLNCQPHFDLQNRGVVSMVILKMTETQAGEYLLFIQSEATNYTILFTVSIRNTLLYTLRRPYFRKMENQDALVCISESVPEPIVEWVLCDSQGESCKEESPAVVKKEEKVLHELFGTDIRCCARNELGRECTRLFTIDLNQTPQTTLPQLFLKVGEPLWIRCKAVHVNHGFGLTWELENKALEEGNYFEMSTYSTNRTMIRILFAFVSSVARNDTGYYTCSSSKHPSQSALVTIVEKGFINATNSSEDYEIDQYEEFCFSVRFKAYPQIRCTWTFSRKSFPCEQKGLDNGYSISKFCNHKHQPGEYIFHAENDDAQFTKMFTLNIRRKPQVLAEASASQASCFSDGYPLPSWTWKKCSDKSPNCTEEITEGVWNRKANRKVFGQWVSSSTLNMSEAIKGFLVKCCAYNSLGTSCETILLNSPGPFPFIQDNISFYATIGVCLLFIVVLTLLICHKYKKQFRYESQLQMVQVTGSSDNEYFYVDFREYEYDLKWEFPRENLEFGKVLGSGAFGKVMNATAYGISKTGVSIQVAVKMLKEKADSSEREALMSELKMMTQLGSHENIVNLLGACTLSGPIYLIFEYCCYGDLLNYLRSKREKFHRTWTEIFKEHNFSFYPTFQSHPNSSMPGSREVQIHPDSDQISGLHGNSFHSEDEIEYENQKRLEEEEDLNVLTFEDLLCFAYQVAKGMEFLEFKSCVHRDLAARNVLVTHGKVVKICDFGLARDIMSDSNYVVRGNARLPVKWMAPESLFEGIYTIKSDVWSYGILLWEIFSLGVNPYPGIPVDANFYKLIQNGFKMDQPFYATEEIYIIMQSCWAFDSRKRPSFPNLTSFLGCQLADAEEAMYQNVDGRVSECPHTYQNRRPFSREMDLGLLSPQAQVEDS

[3] = target: T2, Phosphatidylinositol 4,5-bisphosphate 3-kinase catalytic subunit delta isoform (Homo sapiens, UniProt O00329); experiment: Inhibition of PI3Kdelta (unknown origin) in presence of […] uM ATP
T2 sequence (O00329 whole entry): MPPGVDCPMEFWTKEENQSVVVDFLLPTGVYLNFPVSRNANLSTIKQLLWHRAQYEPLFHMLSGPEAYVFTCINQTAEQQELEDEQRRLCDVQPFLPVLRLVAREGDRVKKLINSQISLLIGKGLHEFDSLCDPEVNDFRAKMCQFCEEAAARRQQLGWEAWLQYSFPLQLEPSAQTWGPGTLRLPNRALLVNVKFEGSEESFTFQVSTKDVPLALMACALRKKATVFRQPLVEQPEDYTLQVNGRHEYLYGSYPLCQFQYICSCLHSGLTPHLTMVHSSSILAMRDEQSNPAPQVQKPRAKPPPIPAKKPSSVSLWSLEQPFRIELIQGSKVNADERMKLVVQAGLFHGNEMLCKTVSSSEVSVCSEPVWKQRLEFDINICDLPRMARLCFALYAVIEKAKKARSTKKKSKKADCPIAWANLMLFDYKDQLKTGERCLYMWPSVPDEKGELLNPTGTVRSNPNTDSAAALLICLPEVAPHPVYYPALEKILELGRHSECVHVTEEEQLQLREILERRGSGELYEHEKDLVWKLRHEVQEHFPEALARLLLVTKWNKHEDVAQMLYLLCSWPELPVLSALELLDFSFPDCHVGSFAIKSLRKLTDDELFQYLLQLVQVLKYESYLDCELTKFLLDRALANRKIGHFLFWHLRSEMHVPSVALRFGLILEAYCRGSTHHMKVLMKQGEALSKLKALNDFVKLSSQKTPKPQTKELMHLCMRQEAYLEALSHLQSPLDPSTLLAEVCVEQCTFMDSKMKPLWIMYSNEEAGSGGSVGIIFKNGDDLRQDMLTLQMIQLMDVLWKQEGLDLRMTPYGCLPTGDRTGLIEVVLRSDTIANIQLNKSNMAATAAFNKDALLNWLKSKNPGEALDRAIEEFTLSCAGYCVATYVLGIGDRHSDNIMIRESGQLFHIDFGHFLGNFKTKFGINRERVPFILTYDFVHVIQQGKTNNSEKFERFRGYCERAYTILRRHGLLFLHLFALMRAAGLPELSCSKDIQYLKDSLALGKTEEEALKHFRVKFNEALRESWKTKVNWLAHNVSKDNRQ

[4] = Aqueous solubility in pH 7.4 phosphate buffer; format: physicochemical
SUD4 = experiment: Growth inhibition of human SU-DHL-4 cells at 3.3 uM incubated for 3 days (reference value: -1%); format: functional; settings: SU-DHL-4, 72 h, time 3 day, read-out: GI
[5] = target: Tyrosine-protein kinase BTK (Homo sapiens, UniProt Q06187); experiment: Inhibition of BTK (unknown origin) in presence of 25 uM ATP
Sequence of Tyrosine-protein kinase BTK (Q06187 whole entry): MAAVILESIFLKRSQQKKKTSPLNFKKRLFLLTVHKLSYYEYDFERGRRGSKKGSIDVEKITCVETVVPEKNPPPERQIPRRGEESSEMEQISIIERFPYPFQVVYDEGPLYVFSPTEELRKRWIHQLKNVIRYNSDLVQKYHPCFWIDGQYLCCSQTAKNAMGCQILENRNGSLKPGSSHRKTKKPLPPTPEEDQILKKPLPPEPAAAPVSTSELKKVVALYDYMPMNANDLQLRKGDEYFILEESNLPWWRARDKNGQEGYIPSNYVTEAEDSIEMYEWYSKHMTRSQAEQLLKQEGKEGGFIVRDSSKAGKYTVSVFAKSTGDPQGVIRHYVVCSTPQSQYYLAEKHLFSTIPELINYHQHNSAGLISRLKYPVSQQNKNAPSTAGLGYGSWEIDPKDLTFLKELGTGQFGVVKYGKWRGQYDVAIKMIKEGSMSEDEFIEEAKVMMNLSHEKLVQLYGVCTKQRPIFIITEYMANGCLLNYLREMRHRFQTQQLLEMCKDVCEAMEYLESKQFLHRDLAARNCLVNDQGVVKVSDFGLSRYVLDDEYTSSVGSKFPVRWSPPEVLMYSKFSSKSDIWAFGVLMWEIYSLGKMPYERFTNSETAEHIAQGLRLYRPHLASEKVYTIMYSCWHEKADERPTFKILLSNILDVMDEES

[6] = target: T3, Interleukin-1 receptor-associated kinase 4 (Homo sapiens) (UniProt Q9NWZ3); experiment: Inhibition of IRAK4 (unknown origin) at 0.1 uM relative to control
T3 sequence (whole entry): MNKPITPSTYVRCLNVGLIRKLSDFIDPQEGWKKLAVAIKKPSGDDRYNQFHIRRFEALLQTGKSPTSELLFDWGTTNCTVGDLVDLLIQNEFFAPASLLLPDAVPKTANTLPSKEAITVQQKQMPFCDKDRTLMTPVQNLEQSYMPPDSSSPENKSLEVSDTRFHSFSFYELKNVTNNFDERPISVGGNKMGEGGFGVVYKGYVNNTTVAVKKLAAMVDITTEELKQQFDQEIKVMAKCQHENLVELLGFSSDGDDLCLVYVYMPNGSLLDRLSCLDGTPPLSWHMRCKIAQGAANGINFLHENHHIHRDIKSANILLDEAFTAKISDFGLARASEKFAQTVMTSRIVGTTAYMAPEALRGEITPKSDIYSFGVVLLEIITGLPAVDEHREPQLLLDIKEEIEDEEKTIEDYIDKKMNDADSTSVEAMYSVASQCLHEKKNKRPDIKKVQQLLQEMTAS

[7] = Apparent permeability across apical to basolateral side in human Caco-2 cells measured for 360 mins by liquid scintillation counting based analysis; format: ADME, cell-based
[8] = target: T4, Interleukin-1 receptor-associated kinase 4 (Homo sapiens, UniProt Q9NWZ3); experiment: Inhibition of IRAK4 (unknown origin) phosphorylation by cell based assay
T4 sequence (Q9NWZ3 whole entry): T3 sequence (whole entry)

[9] = Metabolic stability in human hepatocytes assessed as intrinsic clearance measured per 10^6 cells; format: ADME, cell-based, Hepatocyte; settings: read-out: CLH
OCI-Ly10 [10] = experiment: Growth inhibition of human OCILY10 cells at 0.17 uM incubated for 3 days (Rvb= -2%); format: functional; settings: OCI-Ly10, 72 h, time 3 day, read-out: GI

With `Cc1ncc(-c2nc3c(OC4(C)CC4)nc(Nc4cnn(C5CCN(C)CC5)c4)nc3cc2F)cn1` the inhibition of growth at 10 µM (OCI-Ly10 [1]) was 148%, the IC50 [2] was over 9 µM and the IC50 [3] was 0.053 µM. It also gave a solubility [4] of 800 µM (≈ 392 µg/mL), an inhibition of growth at 3.3 µM (SUD4) of -2% and an IC50 [5] of over 8 µM. The inhibition [6] was 102%, the Papp A→B at 6 h [7] was 31 ×10⁻⁶ cm/s and the IC50 [8] was 0.11 µM. For the same compound, the hepatocyte CLint [9] was under 1 µL/min/1e6 cells.

In the case of `CC[C@@H]1[C@H](F)C(=O)N[C@@H]1COc1nccc2cc(C(N)=O)c(OC)cc12` [ZIMLOVISERTIB], the inhibition of growth at 3.3 µM (SUD4) is reported as 1% and the inhibition of growth at 0.17 µM (OCI-Ly10 [10]) is reported as 5%.

Compound `Cc1ncc(-c2nc3c(NC(C)C)nc(Nc4cnn(C5CC6(C5)CN(C)C6)c4)nc3cc2F)cn1` has an inhibition of growth at 10 µM (OCI-Ly10 [1]) of 157%, an IC50 [2] of 1.5 µM and an IC50 [3] of 0.23 µM. For the same compound, the solubility [4] was over 1000 µM, the IC50 [5] was over 10 µM and the Papp A→B at 6 h [7] was 7.7 ×10⁻⁶ cm/s. The IC50 [8] was 0.21 µM and the hepatocyte CLint [9] was under 1 µL/min/1e6 cells.
